Experimental data reported in patent publication US8795659B2 (priority 2004, dated 2014).

System: Lewis Lung Carcinoma
Conditions: mouse, in vivo, ip

Row | Structure (SMILES) | % ILS (excluding survivors) [%] | Highest non-toxic dosage | T-C (tumor growth delay to 750 mg) [days] | tumor free survivors
1 | O=P1(N(CCCl)CCCl)NCCCO1 (centres unmarked) [Cyclophosphamide, cyclophosphamide] | 68 | 200 | 27 | 5/10
2 | O=P1(NCCCl)OCCCN1CCCl (centres unmarked) [Ifosfamide] | 55 | 300 | 18 | 7/10
